This is an account of results in paper PMC3756485 (The Biochemical journal, 2012).

The target of test [1] is T1, PfENT4 (Plasmodium falciparum, UniProt Q8I2A8). The test is described as follows: cell-based.
For test [2], the target named is T2, PvENT4 (Plasmodium vivax, UniProt A5K9X9). The test is described as follows: cell-based.
The target in test [3] is T1, PfENT4. The class given is cell-based. Particulars: 60 min; for Uptake of radiolabeled substrate relative to H2O-injected oocytes: 1.5 μM radiolabeled compound; for Saturability of concentration-dependent uptake (Michaelis-Menten): concentrations up to 10 mM.
Test [4] deals with T2, PvENT4. The class given is cell-based. Particulars: 60 min; for Uptake of radiolabeled substrate relative to H2O-injected oocytes: 1.5 μM radiolabeled compound; for Saturability of concentration-dependent uptake (Michaelis-Menten): concentrations up to 10 mM.
The subject of test [5] is P. falciparum phosphodiesterase-1. Particulars: cited from earlier work.
Test [6] deals with PfENT1. Particulars: cited from earlier work.
Test [7] relates to P. falciparum parasites. The conditions noted are these: read-out: IC50, in vitro growth; P. falciparum FCR-3 strain parasites; cited from earlier work.
[8] abbreviates: read-out: Inhibition of adenine uptake.

The structures appear in SMILES notation.

For the molecule `O=c1[nH]c(=O)c2[nH]c(=O)[nH]c2[nH]1` [urate], the “Competition for adenine transport” value in test [1] (PfENT4 oocytes, 150 nM [3H]adenine, 60 min, compound 500 μM) is “did not compete”; in test [2] (PvENT4 oocytes, 150 nM [3H]adenine, 60 min, compound 500 μM) it was “did not compete”.
In general, Ki refers to the dissociation constant of the complex between target and ligand, obtained from inhibition or displacement. Take `C/C(=C\CNc1ncnc2[nH]cnc12)CO` [trans-zeatin]: the inhibition constant Ki in test [1] was 20 ± 3 µM; in test [2], 193 ± 21 µM.
For the molecule `O=c1[nH]cnc2c([C@@H]3N[C@H](CO)[C@@H](O)[C@H]3O)c[nH]c12` [Immucillin-H], the “Inhibition of [3H]adenine uptake at 7 mM compared with 2 mM” value in test [1] (PfENT4 oocytes, 150 nM [3H]adenine, 60 min) is listed as “significantly greater inhibition”.
Take `Nc1nc2c(ncn2[C@H]2C[C@H](O)[C@@H](CO)O2)c(=O)[nH]1` [2′-deoxyguanosine]: the “Uptake of radiolabeled substrate relative to H2O-injected oocytes” value in test [3] and in test [4] was “greater uptake” each time.
Consider `O=[N+]([O-])c1ccc(CSc2ncnc3c2ncn3[C@@H]2O[C@H](CO)[C@@H](O)[C@H]2O)cc1` [NBMPR, nitrobenzylmercaptopurineriboside], for which the “Inhibition of adenine uptake” value in test [1] (PfENT4 oocytes, 150 nM [3H]adenine, 60 min, compound 10 μM) is “insensitive”; in test [2] (PvENT4 oocytes, 150 nM [3H]adenine, 60 min, compound 10 μM) it was “insensitive”.
For `O=c1cc[nH]c(=O)[nH]1` [uracil], the “Uptake of radiolabeled substrate relative to H2O-injected oocytes” value in test [4] is “less accumulation”.
Broadly, the inhibition is the percentage by which the read-out fell short of the control. `OCCN(CCO)c1nc(N2CCCCC2)c2nc(N(CCO)CCO)nc(N3CCCCC3)c2n1` [dipyridamole]: the “Inhibition of recombinant P. falciparum phosphodiesterase-1” value in test [5] was “inhibits”. Further, the inhibition at 10 µM in test [1] (setting [8]) and in test [2] (setting [8]) was approximately 80% throughout. Also, in test [6], the “Sensitivity of PfENT1 to inhibitor” value is given as “insensitive”.
As usually defined, the IC50 is the concentration needed to halve the response being measured. On to `CC(C)=CCNc1ncnc2nc[nH]c12` [isopentenyl adenine], for which the IC50 in test [7] is 8.34 µM.
For the molecule `Nc1ncnc2c1ncn2[C@@H]1O[C@H](CO)[C@@H](O)[C@H]1O` [adenosine], the “Uptake of radiolabeled substrate relative to H2O-injected oocytes” value in test [3] and in test [4] was “greater uptake” throughout. Further, the “Saturability of concentration-dependent uptake (Michaelis-Menten)” value in test [3] (PfENT4 oocytes) and in test [4] (PvENT4 oocytes) was “not saturable” throughout.
On to `O=c1[nH]cnc2c1ncn2[C@@H]1O[C@H](CO)[C@@H](O)[C@H]1O` [inosine], for which the “Uptake of radiolabeled substrate relative to H2O-injected oocytes” value in test [3] and in test [4] was “greater uptake” in each case.
`Cc1cn([C@H]2C[C@H](O)[C@@H](CO)O2)c(=O)[nH]c1=O` [thymidine]: the “Uptake of radiolabeled substrate relative to H2O-injected oocytes” value in test [3] and in test [4] was “displayed uptake” each time.
Consider `Cc1c[nH]c(=O)[nH]c1=O` [thymine], for which the “Uptake of radiolabeled substrate relative to H2O-injected oocytes” value in test [4] is listed as “less accumulation”.
For the molecule `O=c1[nH]cnc2nc[nH]c12` [hypoxanthine], the “Uptake of radiolabeled substrate relative to H2O-injected oocytes” value in test [3] and in test [4] was “no observed uptake” throughout. For the same molecule, the “Inhibition of adenine uptake” value in test [1] (PfENT4 oocytes, 150 nM [3H]adenine, 60 min, concentration shown only in Figure 9) is reported as “did not inhibit”; in test [2] (PvENT4 oocytes, 150 nM [3H]adenine, 60 min, concentration shown only in Figure 9), “did not inhibit”.
Regarding `Nc1ncnc2[nH]cnc12` [adenine], the “Uptake of radiolabeled substrate relative to H2O-injected oocytes” value in test [3] and in test [4] was “greater uptake” in each case. The “Saturability of concentration-dependent uptake (Michaelis-Menten)” value in test [3] (PfENT4 oocytes) and in test [4] (PvENT4 oocytes) was “not saturable” in each case. In addition, the values for the Ki in test [1] and in test [2] were 7 ± 2 µM and 6 ± 2 µM, respectively.
In the case of `Nc1ncnc2c1ncn2[C@H]1C[C@H](O)[C@@H](CO)O1` [2′-deoxyadenosine], the “Uptake of radiolabeled substrate relative to H2O-injected oocytes” value in test [3] and in test [4] was “greater uptake” in each case.
For `Nc1ncnc2c1ncn2[C@@H]1O[C@H](COP(=O)(O)O)[C@@H](O)[C@H]1O` [AMP, adenosine monophosphate], the “Transport of radiolabeled substrate” value in test [3] (PfENT4 oocytes, 1.5 μM, in presence of 250 μM α,β-methyleneADP) is “not observed”; in test [4] (PvENT4 oocytes, 1.5 μM, in presence of 250 μM α,β-methyleneADP), “not observed”. Further, the “Substrate of PfENT1” value in test [6] is reported as “not substrates”.
